Source: US9751081B2, “Self-regenerating antioxidant catalysts and methods of using the same” (Clemson University, priority 2014, dated 2017)

Key:
[1] = published values; cited from earlier work
[2] = Reduction of ABTS radical monoanion in EtOH (absorbance at 750 nm); type: biochemical
Method: To probe the potential antioxidant activity of Ru1, 2,2′-azino-bis(3-ethylbenzothiazoline-6-sulfonate) radical monoanion (ABTS^•−), which is stable in aerobic, protic media and undergoes reversible one-electron reduction to ABTS^2−, was selected as the substrate for studies of catalytic radical reduction (Scheme 7).
Accompanying this degradation of 50 μM ABTS^•− was an increase in absorbance at 340 nm corresponding to the formation of 50 μM ABTS^2−, indicating 1:1 conversion of ABTS^•− to ABTS^2− by Ru1.
To assess its catalytic potential and corresponding regeneration, the reactivity of Ru1 with multiple sequential aliquots of excess ABTS^•− was examined. After the reduction of 50 μM ABTS^•− by 5 μM Ru1 (DMSO stock) was complete (FIG. 12B, black line), 5 additional 50 μM aliquots of ABTS^•− were introduced, whereupon complete ABTS^•− reduction occurred each time (FIG. 12B, grey line, 60 turnovers). Although the time required for complete degradation increased with each successive ABTS^•− aliquot, 5 μM Ru1 nonetheless remained catalytically competent for the complete reduction of […] ABTS^•−.

[3] = In situ oxidation of ABTS^2− to ABTS^•− via HRP and H2O2 in the presence of antioxidant; type: biochemical
[4] = Stability (air, moisture, solution); type: physicochemical; details: isolated powder

## OCCO [EG, Ethylene glycol]
[1]
  pKa: 14.22

## CO [MeOH, methanol]
[1]
  pKa: 15.5

## Cc1c(C)c2c(c(C)c1O)CCC(C)(C(=O)O)O2 (stereo not drawn) [Trolox]
[2]; 5 μM antioxidant, 50 μM ABTS^•− in EtOH
  ABTS^•− reduced: 10 µM
[2]; 5 μM antioxidant, 50 μM ABTS^•− in EtOH, 25° C.
  decay in radical absorbance at 750 nm: 20%
[2]; EtOH, non-catalytic capacity
  equiv. of ABTS^•− reduced vs antioxidant: 2 equiv.
[3]; 5 μM Trolox, 10 μM H2O2
  net oxidation of ABTS^2−: 75%
  time with no change in absorbance at 734 nm (ABTS^•− formation halted): 4.2 ± 0.4 min
[3]; 5 μM antioxidant (DMSO stock), 10 nM HRP, 50 μM ABTS^2−, first 10 μM H2O2, PBS
  initial rate of ABTS^•− formation (v0): 3.44±0.11×10^−8 M s^−1
[3]; first 10 μM H2O2
  maximum ABTS^•− concentration: 15.06 ± 0.04 µM
  time to maximum ABTS^•− concentration: 22.0 ± 0.5 min

## Br.Cc1cc(C)cc(-n2c[n+](CC(=O)[O-])c3ccccc32)c1 [[1H2][Br], 2-(3-{3,5-dimethylphenyl}-benzimidazol-1-ium-1-yl)acetate hydrobromide]
[4]
  stability to air and moisture: air- and moisture-stable

## CC(C)O [i-PrOH, isopropanol]
[1]
  pKa: 16.5
